Reference: the NIST ThermoML archive (doi:10.1016/j.jct.2016.12.037)

Assay: xn = mol fraction of the nth substance listed
Settings: Liquid; for viscosity: Concentric cylinders viscometry

CCCC[n+]1ccn(C)c1.O=S(=O)([N-]S(=O)(=O)C(F)(F)F)C(F)(F)F + CCCCn1cc[n+](C)c1.[Cl-]
viscosity [mPa·s], 100 kPa
Settings	293.15 K	303.15 K	313.15 K	323.15 K	333.15 K	343.15 K	353.15 K	363.15 K	373.15 K
x2 = 0	63.41	41.26	28.46	20.58	15.47	12	9.562	7.788	6.469
x2 = 0.25	150.8	89.81	57.25	38.43	27.37	20.16	15.34	12.03	9.638
x2 = 0.5	489.6	255.5	144.8	87.69	57.22	39.08	27.82	20.61	15.7
x2 = 0.75	–	1095	513	265.5	150.4	91.4	58.87	40.11	28.43

mass density [kg/m3]
Settings	x2 = 0	x2 = 0.25	x2 = 0.5	x2 = 0.75
293.15 K, 100 kPa, Vibrating tube method	1440.9	1383.3	1310.1	–
303.15 K, 100 kPa, Vibrating tube method	1431.6	1374.4	1301.8	1207.9
312.3 K, 10000 kPa, Bellows volumetry	–	1373.1	1300.2	1205.8
312.3 K, 20000 kPa, Bellows volumetry	–	1379.8	1306.1	1210.5
312.3 K, 30000 kPa, Bellows volumetry	–	1386	1311.7	1215
312.3 K, 40000 kPa, Bellows volumetry	–	1392	1317	1219.3
312.3 K, 50000 kPa, Bellows volumetry	–	1397.7	1322.1	1223.6
312.3 K, 60000 kPa, Bellows volumetry	–	1403.3	1326.9	1227.7
312.3 K, 70000 kPa, Bellows volumetry	–	1408.6	1331.6	1231.6
312.3 K, 80000 kPa, Bellows volumetry	–	1413.7	1336.2	1235.5
312.3 K, 90000 kPa, Bellows volumetry	–	1418.5	1340.5	1239.2
312.3 K, 100000 kPa, Bellows volumetry	–	1423.4	1344.8	1242.8
312.3 K, 110000 kPa, Bellows volumetry	–	1428.1	1349.1	1246.4
312.3 K, 120000 kPa, Bellows volumetry	–	1432.6	1353.1	1249.9
312.3 K, 130000 kPa, Bellows volumetry	–	1437.1	1357.1	1253.3
312.3 K, 140000 kPa, Bellows volumetry	–	1441.3	1360.9	1256.6
312.3 K, 150000 kPa, Bellows volumetry	–	1445.6	1364.7	1260
312.3 K, 160000 kPa, Bellows volumetry	–	1449.7	1368.4	1263.1
312.3 K, 170000 kPa, Bellows volumetry	–	1453.8	1372.2	1266.3
312.3 K, 180000 kPa, Bellows volumetry	–	1457.7	1375.8	1269.4
312.3 K, 190000 kPa, Bellows volumetry	–	1461.7	1379.3	1272.4
312.3 K, 200000 kPa, Bellows volumetry	–	1465.4	1382.7	1275.5
313.15 K, 100 kPa, Vibrating tube method	1422.1	1365.6	1293.9	1200.6
323.15 K, 100 kPa, Vibrating tube method	1412.6	1356.8	1286	1193.6
331.8 K, 10000 kPa, Bellows volumetry	–	1356.2	1285.2	1192.4
331.8 K, 20000 kPa, Bellows volumetry	–	1363.2	1291.3	1197.3
331.8 K, 30000 kPa, Bellows volumetry	–	1369.9	1297.1	1202.1
331.8 K, 40000 kPa, Bellows volumetry	–	1376.2	1302.7	1206.7
331.8 K, 50000 kPa, Bellows volumetry	–	1382.2	1307.9	1211.1
331.8 K, 60000 kPa, Bellows volumetry	–	1388	1313	1215.5
331.8 K, 70000 kPa, Bellows volumetry	–	1393.5	1318	1219.5
331.8 K, 80000 kPa, Bellows volumetry	–	1398.9	1322.8	1223.6
331.8 K, 90000 kPa, Bellows volumetry	–	1404	1327.2	1227.4
331.8 K, 100000 kPa, Bellows volumetry	–	1408.9	1331.6	1231.2
331.8 K, 110000 kPa, Bellows volumetry	–	1413.9	1336.1	1235
331.8 K, 120000 kPa, Bellows volumetry	–	1418.5	1340.4	1238.5
331.8 K, 130000 kPa, Bellows volumetry	–	1423.2	1344.4	1242
331.8 K, 140000 kPa, Bellows volumetry	–	1427.6	1348.5	1245.4
331.8 K, 150000 kPa, Bellows volumetry	–	1432	1352.3	1248.7
331.8 K, 160000 kPa, Bellows volumetry	–	1436.3	1356.2	1252.1
331.8 K, 170000 kPa, Bellows volumetry	–	1440.5	1359.9	1255.3
331.8 K, 180000 kPa, Bellows volumetry	–	1444.5	1363.8	1258.5
331.8 K, 190000 kPa, Bellows volumetry	–	1448.5	1367.3	1261.6
331.8 K, 200000 kPa, Bellows volumetry	–	1452.6	1371	1264.7
333.15 K, 100 kPa, Vibrating tube method	1403.4	1348.2	1278.3	1186.8
343.15 K, 100 kPa, Vibrating tube method	1394	1339.6	1270.6	1180.2
351.9 K, 10000 kPa, Bellows volumetry	–	1339.5	1270.2	1179
351.9 K, 20000 kPa, Bellows volumetry	–	1346.9	1276.5	1184.3
351.9 K, 30000 kPa, Bellows volumetry	–	1354	1282.7	1189.3
351.9 K, 40000 kPa, Bellows volumetry	–	1360.6	1288.5	1194.1
351.9 K, 50000 kPa, Bellows volumetry	–	1366.9	1294.1	1198.8
351.9 K, 60000 kPa, Bellows volumetry	–	1373	1299.5	1203.2
351.9 K, 70000 kPa, Bellows volumetry	–	1378.9	1304.5	1207.5
351.9 K, 80000 kPa, Bellows volumetry	–	1384.5	1309.5	1211.8
351.9 K, 90000 kPa, Bellows volumetry	–	1389.8	1314.2	1215.7
351.9 K, 100000 kPa, Bellows volumetry	–	1394.9	1318.9	1219.6
351.9 K, 110000 kPa, Bellows volumetry	–	1400	1323.3	1223.4
351.9 K, 120000 kPa, Bellows volumetry	–	1404.9	1327.8	1227.2
351.9 K, 130000 kPa, Bellows volumetry	–	1409.6	1332	1230.8
351.9 K, 140000 kPa, Bellows volumetry	–	1414.2	1336.1	1234.5
351.9 K, 150000 kPa, Bellows volumetry	–	1418.7	1340.3	1237.9
351.9 K, 160000 kPa, Bellows volumetry	–	1423.2	1344.2	1241.4
351.9 K, 170000 kPa, Bellows volumetry	–	1427.5	1348	1244.7
351.9 K, 180000 kPa, Bellows volumetry	–	1431.7	1351.8	1247.9
351.9 K, 190000 kPa, Bellows volumetry	–	1435.8	1355.6	1251.2
351.9 K, 200000 kPa, Bellows volumetry	–	1439.9	1359.2	1254.3
353.15 K, 100 kPa, Vibrating tube method	1384.8	1331.1	1263	1173.6
363.15 K, 100 kPa, Vibrating tube method	1375.6	1322.6	1255.4	1167.1
372.1 K, 10000 kPa, Bellows volumetry	–	1322.9	1255	1165.9
372.1 K, 20000 kPa, Bellows volumetry	–	1330.9	1261.8	1171.6
372.1 K, 30000 kPa, Bellows volumetry	–	1338.3	1268.4	1176.9
372.1 K, 40000 kPa, Bellows volumetry	–	1345.3	1274.6	1181.9
372.1 K, 50000 kPa, Bellows volumetry	–	1352	1280.4	1186.7
372.1 K, 60000 kPa, Bellows volumetry	–	1358.3	1286	1191.4
372.1 K, 70000 kPa, Bellows volumetry	–	1364.4	1291.3	1195.9
372.1 K, 80000 kPa, Bellows volumetry	–	1370.4	1296.5	1200.3
372.1 K, 90000 kPa, Bellows volumetry	–	1375.8	1301.4	1204.4
372.1 K, 100000 kPa, Bellows volumetry	–	1381.2	1306.1	1208.5
372.1 K, 110000 kPa, Bellows volumetry	–	1386.4	1310.9	1212.5
372.1 K, 120000 kPa, Bellows volumetry	–	1391.5	1315.4	1216.3
372.1 K, 130000 kPa, Bellows volumetry	–	1396.2	1319.8	1220
372.1 K, 140000 kPa, Bellows volumetry	–	1401.1	1324.2	1223.7
372.1 K, 150000 kPa, Bellows volumetry	–	1405.7	1328.4	1227.3
372.1 K, 160000 kPa, Bellows volumetry	–	1410.3	1332.5	1230.8
372.1 K, 170000 kPa, Bellows volumetry	–	1414.7	1336.4	1234.1
372.1 K, 180000 kPa, Bellows volumetry	–	1419	1340.3	1237.6
372.1 K, 190000 kPa, Bellows volumetry	–	1423.3	1344.1	1240.8
372.1 K, 200000 kPa, Bellows volumetry	–	1427.6	1347.9	1244.1
373.15 K, 100 kPa, Vibrating tube method	1366.7	1314	1247.5	1160.2
392.3 K, 10000 kPa, Bellows volumetry	–	1306.7	1240.1	1152.9
392.3 K, 20000 kPa, Bellows volumetry	–	1315.1	1247.4	1158.8
392.3 K, 30000 kPa, Bellows volumetry	–	1323.1	1254.3	1164.4
392.3 K, 40000 kPa, Bellows volumetry	–	1330.5	1260.9	1169.7
392.3 K, 50000 kPa, Bellows volumetry	–	1337.5	1266.9	1174.8
392.3 K, 60000 kPa, Bellows volumetry	–	1344.2	1272.8	1179.6
392.3 K, 70000 kPa, Bellows volumetry	–	1350.5	1278.4	1184.3
392.3 K, 80000 kPa, Bellows volumetry	–	1356.6	1283.8	1188.8
392.3 K, 90000 kPa, Bellows volumetry	–	1362.4	1288.8	1193.1
392.3 K, 100000 kPa, Bellows volumetry	–	1368	1293.8	1197.3
392.3 K, 110000 kPa, Bellows volumetry	–	1373.3	1298.7	1201.5
392.3 K, 120000 kPa, Bellows volumetry	–	1378.6	1303.4	1205.5
392.3 K, 130000 kPa, Bellows volumetry	–	1383.7	1308	1209.3
392.3 K, 140000 kPa, Bellows volumetry	–	1388.7	1312.4	1213.1
392.3 K, 150000 kPa, Bellows volumetry	–	1393.5	1316.8	1216.8
392.3 K, 160000 kPa, Bellows volumetry	–	1398.2	1320.9	1220.4
392.3 K, 170000 kPa, Bellows volumetry	–	1402.8	1325.1	1224
392.3 K, 180000 kPa, Bellows volumetry	–	1407.1	1329.2	1227.4
392.3 K, 190000 kPa, Bellows volumetry	–	1411.5	1333	1230.8
392.3 K, 200000 kPa, Bellows volumetry	–	1415.9	1336.9	1234.2
